Results on one compound are retold here after patent US20160361302A1, “SNS-595 AND METHODS OF USING THE SAME” (Sunesis Pharmaceuticals, Inc., priority 2004, published 2016).

Usually Cmax stands for the maximum level reached in the sampled fluid or tissue. Broadly, the AUC(0-t) is exposure summed from dosing to a finite time, without extrapolation to infinity. High values mean more exposure, low ones less exposure.

Read-outs that look alike come from different tables or passages of the source.

The nature of the data set: Pharmacokinetics of SNS-595 in cancer patients. Conditions: for AUC(0-inf): read-out: AUCINF_obs. The format is in vivo, human. The protocol:
SNS-595 was administered to enrolled patients for up to six cycles. A cycle is defined as a three-week period, with SNS-595 administered on the first day of each cycle (day 0), followed by at least 21 days of observation. SNS-595 was administered to cohorts of at least 3 patients and dose escalation occurred by sequential cohort.

Where [1] appears, read: dose 6 mg/m2, cancer patients, plasma.
Setting [2] is: dose 12 mg/m2, cancer patients, plasma.
Where [3] appears, read: dose 24 mg/m2, cancer patients, plasma.
Setting [4] is: dose 48 mg/m2, cancer patients, plasma.
Setting [5] is: human, dose 12 mg/m2, cancer patients, plasma.

As for `CN[C@H]1CN(c2ccc3c(=O)c(C(=O)O)cn(-c4nccs4)c3n2)C[C@@H]1OC` [SNS-595, (+)-1,4-dihydro-7-[(3S,4S)-3-methoxy-4-(methylamino)-1-pyrrolidinyl]-4-oxo-1-(2-thiazoyl)-1,8-naphthyridine-3-carboxylic acid], the Vs_obs is, setting by setting: (dose 2 mg/m2, cancer patients, plasma) 1.38 L/kg; under setting [1], 1.28 L/kg; under setting [2], 1.17 L/kg; under setting [3], 1.18 L/kg; under setting [4], 1.37 L/kg. Also, the AUClast runs as follows: under setting [1], 2408.08 ng·h/mL; under setting [3], 11132.02 ng·h/mL. The CI_obs reads like this: under setting [1], 0.71 mL/min/kg; under setting [2], 0.78 mL/min/kg; under setting [3], 0.83 mL/min/kg. Further, the Cmax was 347.06 ng/mL under setting [1], 2702.33 ng/mL under setting [3] and 2342.00 ng/mL under setting [4]. Further, the AUC(0-inf) runs as follows: (human, dose 6 mg/m2, cancer patients, plasma) 2800 ng·h/mL; under setting [5], 5230 ng·h/mL. Also, the AUC(0-t) under setting [5] is about 6280 ng·h/mL. For the same compound, the “Consistency of pharmacokinetic properties among patients” value (patients in the same cohort) is “remarkably consistent among patients in the same cohort”.
